PMC4433263, “Identification of Rv3852 as an Agrimophol-Binding Protein in Mycobacterium tuberculosis” (PLoS ONE, 2015)

Molecular target: T1, Rv3852 (Mycobacterium tuberculosis, UniProt I6YHB0)
T1 construct: gene hns
Test: ITC; supported by competitive EMSA with proU2 DNA
Assay type: binding

T1 sequence (I6YHB0 2-134 limits assumed): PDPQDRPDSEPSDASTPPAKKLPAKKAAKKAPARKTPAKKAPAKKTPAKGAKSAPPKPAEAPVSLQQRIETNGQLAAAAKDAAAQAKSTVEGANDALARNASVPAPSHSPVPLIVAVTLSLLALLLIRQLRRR

Compound	Kd [µM]
C#CCOc1c(C)c(O)c(Cc2c(O)c(C)c(O)c(C(=O)C(C)CC)c2O)c(O)c1C(=O)CCC (centres unmarked) [a1]	22
CCCC(=O)c1c(O)c(CC2(C)C(=O)C(C(=O)C(C)CC)=C(O)C(C)=C2O)c(O)c(C)c1OC (centres unmarked) [agrimophol]	34
